These results are taken from PMC4481955, “Sensitive, Fast, and Specific Immunoassays for Methyltestosterone Detection” (Sensors (Basel, Switzerland), 2015).

One test deals with anti-MT mAb. The test is described as follows: indirect competitive ELISA (icELISA) with anti-MT monoclonal antibody. It is filed as binding, mouse. As to conditions: for CR (%): CR = (IC50 of MT/IC50 of competition analogue) x 100%. The method, then: (§1) Checkerboard titration was used for the determination of optimum coating antigen and antibody concentrations in icELISA. A 96-well microplate was coated with 100 μL/well MT-CMO-OVA (0.1 μg/mL, in 0.05 M CBS, pH 9.6) and incubated overnight at 4 °C. The wells were washed three times with washing buffer (0.01 M, PBS, containing 0.2% Tween 20) to remove free coating antigen and blocked with 220 μL blocking buffer (0.05 M, 0.2% Gelatin in CBS) at 37 °C for 2 h.
After washing, 50 μL of different concentrations of standard and 50 μL of antibody were added to wells and incubated at 37 °C for 30 min. Following another wash to remove unbound antibody and standards, 100 μL of 1:3000 diluted HRP-labelled goat anti-mouse IgG was added to each well and incubated for 30 min at 37 °C. After washing three times, 100 μL of substrate was added and incubated for 15 min at 37 °C. The enzymatic reaction was stopped with 50 μL sulfuric acid (2 M) per well. A microplate reader was used to determine the absorbance of each well at 450 nm.
Three immunoassay parameters (methanol content, ionic strength and pH of the solvent) were optimized to improve both the stability and sensitivity of icELISA. The criteria used to evaluate immunoassay performance were half inhibition concentration (IC50), maximum absorbance (Amax) and Amax/IC50. To optimize the methanol content in the solvent, PBS was mixed with different contents of methanol (0%, 5%, 10% and 20%). For ionic strength optimization, different concentrations of PBS (5, 10, 20, and 40 mM) were used. Finally, for solvent pH optimization, PBS was adjusted to different pH values (4.7–9.6).
In this study, mAb specificity was investigated by cross-reactivity (CR). Competition analogues (testosterone, nor-testosterone, estradiol, estriol, progesterone, epitestosterone, dihydrotestosterone and dexamethasone) were prepared in methanol at 1 mg/mL. A series of standard solutions (0, 1, 2, 5, 10, 20, 50 and 100 ng/mL) were diluted with optimized PBS and subjected to icELISA. CR values were calculated with the following formula: CR (%) = (IC50 of MT/IC50 of competition analogue) × 100%
For orientation: ELISA stands for enzyme-linked immunosorbent assay.

Test [1] has as its system antisera (mouse No. 16), anti-MT activity. Description: icELISA screening of mouse antiserum for anti-MT activity. As to conditions: mouse No. 16, after two subsequent injections, MT in PBS. It is filed as binding. The method, then:
Female BALB/c mice (8–10 weeks old) were injected subcutaneously at multiple sites with the immunogen MT-CMO-BSA (100 μg in 0.1 mL saline) emulsified with an equal volume of Freund’s complete adjuvant. For subsequent boosters administered at one-month intervals, Freund’s incomplete adjuvant was used. Antisera were collected following the third booster immunization and screened for anti-MT activity by icELISA [27]. The mouse with the highest anti-MT activity was administered the immunogen (20 μg in 0.2 mL saline) by intraperitoneal injection and sacrificed three days later for cell fusion.
as §1
After washing, 50 μL of different concentrations of standard and 50 μL of antibody were added to wells and incubated at 37 °C for 30 min. […] A microplate reader was used to determine the absorbance of each well at 450 nm.

Where [2] appears, read: optimized icELISA, PBS 10 mM, pH 7.4.

The IC50 is the concentration needed to halve the response being measured. On to `C[C@@H]1C[C@H]2[C@@H]3CCC4=CC(=O)C=C[C@]4(C)[C@@]3(F)[C@@H](O)C[C@]2(C)[C@@]1(O)C(=O)CO` [Dexamethasone], for which the “CR (%)” value with anti-MT mAb is <0.26%. Moreover, the concentration for half-maximal inhibition (IC50) with anti-MT mAb (setting [2]) is reported as >100 ng/mL.
As to `C[C@]12CCC(=O)C[C@@H]1CC[C@@H]1[C@@H]2CC[C@]2(C)[C@@H](O)CC[C@@H]12` [Dihydrotestosterone], in the test on anti-MT mAb, the “CR (%)” value is reported as <0.26%. Moreover, the half-maximal inhibitory concentration (IC50) in the test on anti-MT mAb (setting [2]) was >100 ng/mL.
For `C[C@]12CC[C@H]3[C@@H](CCC4=CC(=O)CC[C@@]43C)[C@@H]1CC[C@H]2O` [Epitestosterone], the “CR (%)” value in the test on anti-MT mAb is given as <0.26%. Moreover, in the test on anti-MT mAb (setting [2]), the IC50 is listed as >100 ng/mL.
`C[C@]12CC[C@@H]3c4ccc(O)cc4CC[C@H]3[C@@H]1CC[C@@H]2O` [Estradiol]: the “CR (%)” value in the test with anti-MT mAb is listed as 0.52%. Besides, the IC50 with anti-MT mAb (setting [2]) was 50 ng/mL.
Taken in the same sequence, the figures for `C[C@]12CC[C@@H]3c4ccc(O)cc4CC[C@H]3[C@@H]1C[C@@H](O)[C@@H]2O` [Estriol] were <0.26% and >100 ng/mL.
For `C[C@]12CCC(=O)C=C1CC[C@@H]1[C@@H]2CC[C@@]2(C)[C@H]1CC[C@]2(C)O` [Methyltestosterone], the IC50 of antiserum result in test [1] is reported as “approximately 3 ng/mL”. Besides, the “CR (%)” value in the test on anti-MT mAb came out at 100%. Besides, the IC50 is 0.68 ± 0.017 ng/mL in the test with anti-MT mAb (ionic strength (PBS) 5 mM); 0.398 ± 0.024 ng/mL in the test with anti-MT mAb (ionic strength (PBS) 10 mM); 0.565 ± 0.024 ng/mL in the test on anti-MT mAb (ionic strength (PBS) 20 mM); 0.504 ± 0.092 ng/mL in the test with anti-MT mAb (ionic strength (PBS) 40 mM); 0.418 ± 0.02 ng/mL in the test with anti-MT mAb (methanol content 0%); 0.567 ± 0.023 ng/mL in the test with anti-MT mAb (methanol content 5%). Besides, the IC50 amounted to 0.418 ± 0.05 ng/mL in the test with anti-MT mAb (methanol content 10%); 0.626 ± 0.009 ng/mL in the test with anti-MT mAb (methanol content 20%); 0.26 ng/mL in the test with anti-MT mAb (setting [2]); 0.456 ng/mL in the test with anti-MT mAb (pH 4.7); 0.723 ± 0.038 ng/mL in the test with anti-MT mAb (pH 6.0); 0.455 ng/mL with anti-MT mAb (pH 7.4). The half-inhibitory concentration (IC50) came to 0.577 ± 0.026 ng/mL in the test on anti-MT mAb (pH 8.6) and 0.714 ± 0.007 ng/mL in the test on anti-MT mAb (pH 9.6). Also, the “IC50 of purified mAb” value in the test on anti-MT mAb (purified mAb from hybridoma 1E12, before optimization) is on record as 0.4 ng/mL.
For the compound `C[C@]12CC[C@H]3[C@@H](CCC4=CC(=O)CC[C@@H]43)[C@@H]1CC[C@@H]2O` [Nor-testosterone], in the test on anti-MT mAb, the “CR (%)” value turned out to be 1.04%. The concentration for half-maximal inhibition (IC50) in the test with anti-MT mAb (setting [2]) came out at 25 ng/mL.
Taken in the same sequence, the figures for `CC(=O)[C@H]1CC[C@H]2[C@@H]3CCC4=CC(=O)CC[C@]4(C)[C@H]3CC[C@]12C` [Progesterone] were <0.26% and >100 ng/mL.
Consider `C[C@]12CC[C@H]3[C@@H](CCC4=CC(=O)CC[C@@]43C)[C@@H]1CC[C@@H]2O` [Testosterone], for which the IC50 in the test on anti-MT mAb (setting [2]) is 12 ng/mL.
